Experimental data: BindingDB's records for doi:10.1080/14756360801915476 (Instituto De Parastiologia Y Biomedicina "Lopez-Neyra, 2009)

Assays:
Experiment in all cases: Inhibition Assay
Conditions in all cases: pH 8; 25 °C
[1] = target: T1, Deoxyuridine 5'-triphosphate nucleotidohydrolase (Plasmodium falciparum (isolate 3D7), UniProt Q8II92)
T1 sequence (Q8II92 whole entry): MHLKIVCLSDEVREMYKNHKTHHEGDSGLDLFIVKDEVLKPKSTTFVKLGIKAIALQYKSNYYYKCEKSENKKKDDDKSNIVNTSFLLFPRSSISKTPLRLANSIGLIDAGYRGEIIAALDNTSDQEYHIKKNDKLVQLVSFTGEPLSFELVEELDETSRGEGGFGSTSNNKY
Text: (§1) Nucleotide hydrolysis was monitored by mixing enzyme and substrate with a rapid kinetic accessory (Hi-Tech Scientific) attached to a spectrophotometer (Cary 50). Protons, released through the hydrolysis of nucleotides, were neutralized with […] and monitored spectrophotometrically at the absorbance peak of the basic form of the indicator.

[2] = target: T2, Deoxyuridine 5'-triphosphate nucleotidohydrolase, mitochondrial (Homo sapiens, UniProt P33316)
T2 sequence (P33316 whole entry): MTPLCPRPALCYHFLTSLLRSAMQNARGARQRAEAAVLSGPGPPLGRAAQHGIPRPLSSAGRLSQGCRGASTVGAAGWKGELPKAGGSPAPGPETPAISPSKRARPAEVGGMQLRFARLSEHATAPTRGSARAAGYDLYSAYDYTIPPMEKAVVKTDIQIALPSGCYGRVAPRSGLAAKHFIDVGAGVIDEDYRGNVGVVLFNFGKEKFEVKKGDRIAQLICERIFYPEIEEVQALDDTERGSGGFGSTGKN
Text: as §1

[3] = target: T3, dCTP deaminase (Campylobacter jejuni subsp. jejuni serotype O:2 (strain ATCC 700819 / NCTC 11168), UniProt Q9PN07)
T3 sequence (Q9PN07 whole entry): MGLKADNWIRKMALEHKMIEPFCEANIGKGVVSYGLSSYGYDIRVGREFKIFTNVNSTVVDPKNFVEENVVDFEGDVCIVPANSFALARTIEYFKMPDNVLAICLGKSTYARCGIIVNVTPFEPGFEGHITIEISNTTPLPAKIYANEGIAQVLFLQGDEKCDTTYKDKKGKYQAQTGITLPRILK
Text: as §1

| Structure (SMILES) | Ki [1] | Ki [2] | Ki [3] |
| --- | --- | --- | --- |
| O=c1ccn(C2CC(O)C(CO[Si](c3ccccc3)(c3ccccc3)c3ccccc3)O2)c(=O)[nH]1 (stereo not drawn) | 2.8 µM | 908 µM | – |
| CC(C)(C)[Si](OCC1C=CC(n2ccc(=O)[nH]c2=O)O1)(c1ccccc1)c1ccccc1 (stereo not drawn) [dUTPase inhibitor, 5] | 1.16 µM | > 1000 µM | – |
| CC(C)(C)[Si](OCC1OC(n2ccc(=O)[nH]c2=O)CC1O)(c1ccccc1)c1ccccc1 (stereo not drawn) | 4.2 µM | 805 µM | – |
| CC(C)[Si](OCC1OC(n2ccc(=O)[nH]c2=O)CC1O)(C(C)C)C(C)C (stereo not drawn) | 227 µM | 1000 µM | – |
| O=c1ccn(C2C=CC(COC(c3ccccc3)(c3ccccc3)c3ccccc3)O2)c(=O)[nH]1 (stereo not drawn) [dUTPase inhibitor, 2] | – | – | 1000 µM |
| O=C(OCC1C=CC(n2ccc(=O)[nH]c2=O)O1)C12CC3CC(CC(C3)C1)C2 (stereo not drawn) [dUTPase inhibitor, 3] | 57.7 µM | 298 µM | 547 µM |
| O=c1ccn(C2CC(O)C(CNCc3ccccc3)O2)c(=O)[nH]1 (stereo not drawn) | – | 1000 µM | – |
| O=c1ccn(C2CC(O)C(COP(=O)(Oc3ccccc3)Oc3ccccc3)O2)c(=O)[nH]1 (stereo not drawn) [dUTPase inhibitor, 1] | 238 µM | 135 µM | 1000 µM |
| CC(C)(C)[Si](C)(C)OCC1OC(n2ccc(=O)[nH]c2=O)CC1F (stereo not drawn) [dUTPase inhibitor, 6] | 6.28 µM | > 1000 µM | – |
